Measurements published in ChEMBL document CHEMBL1201862, “PubChem BioAssay data set” (2004).
The source made the active and inactive calls.

How the values were obtained:
[1] = target: T1, Heat shock factor protein 1 (Mus musculus, UniProt P38532); assay: HSF1 potentiators in luciferase reporter cells, confirmation, cell-based, NIH3T3, luminescence, dose retest (AID 435004); format: functional;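 note: stress induced by proteasome inhibitor MG132 added 30 min after compound; luciferase reporter driven by HSF1 response element in NIH3T3 cells; actives raise luminescence as potentiators of the MG132 stress response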
T1 sequence (P38532 whole entry): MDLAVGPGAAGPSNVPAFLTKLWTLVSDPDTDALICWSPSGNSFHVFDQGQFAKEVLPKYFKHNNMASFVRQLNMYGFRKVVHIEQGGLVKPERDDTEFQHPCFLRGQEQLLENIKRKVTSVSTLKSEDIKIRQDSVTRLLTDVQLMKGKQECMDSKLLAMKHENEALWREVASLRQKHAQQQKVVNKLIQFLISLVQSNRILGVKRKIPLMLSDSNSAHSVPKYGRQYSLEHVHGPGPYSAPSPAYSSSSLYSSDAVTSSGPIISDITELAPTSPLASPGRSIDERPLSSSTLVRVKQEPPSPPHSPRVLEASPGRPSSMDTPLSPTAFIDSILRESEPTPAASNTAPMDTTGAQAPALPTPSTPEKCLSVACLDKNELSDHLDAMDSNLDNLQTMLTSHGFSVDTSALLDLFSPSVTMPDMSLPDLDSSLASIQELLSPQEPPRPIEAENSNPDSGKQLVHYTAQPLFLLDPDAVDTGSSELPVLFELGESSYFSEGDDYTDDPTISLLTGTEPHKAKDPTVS

[2] = Luminescence Cell-Based Dose Response HTS to Identify Activators of Luciferase Translation or Activity in H4 […] Cells. [Related pubchem assays: 1829 (Project Summary), 1814 (Primary HTS)]; format: functional
H4 = assay: Luminescence Cell-Based Dose Response HTS to Identify Activators of 5'UTR Stem-Loop Driven Prion Protein mRNA Translation in H4 Neuroglioblastoma Cells. [Related pubchem assays: 1829 (Project Summary), 1814 (Primary HTS)]; format: functional; conditions: Homo sapiens
[3] = Luminescence Cell-Based Dose Confirmation HTS to Identify Activators of 5'UTR Stem-Loop Driven Alpha-Synuclein mRNA Translation in H4 Neuroglioblastoma Cells. [Related pubchem assays: 1829 (Project Summary), 1814 (Primary HTS)]; format: functional
[4] = target: T2, Calpain-2 catalytic subunit (Sus scrofa, UniProt P43367); assay: pig calpain II inhibitor potency, dose response, biochemical, fluorogenic peptide substrate (AID 1420); format: functional
T2 sequence (P43367 whole entry): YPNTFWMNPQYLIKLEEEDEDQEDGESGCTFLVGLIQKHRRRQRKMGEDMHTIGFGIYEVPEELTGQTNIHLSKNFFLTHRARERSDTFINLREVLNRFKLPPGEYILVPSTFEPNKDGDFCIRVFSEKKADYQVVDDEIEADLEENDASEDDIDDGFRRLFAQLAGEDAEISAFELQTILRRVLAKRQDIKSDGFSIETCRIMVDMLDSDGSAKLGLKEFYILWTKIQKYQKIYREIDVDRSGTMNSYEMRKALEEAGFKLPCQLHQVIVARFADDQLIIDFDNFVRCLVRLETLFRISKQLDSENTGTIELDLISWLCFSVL

[5] = target: T3, Short transient receptor potential channel 4 (Mus musculus, UniProt Q9QUQ5); assay: mouse TRPC4 channel activators, dose response, cell-based, HEK293 TRPC4/mu-opioid, Fluo-4 calcium (AID 434937); format: functional
T3 sequence (Q9QUQ5 whole entry): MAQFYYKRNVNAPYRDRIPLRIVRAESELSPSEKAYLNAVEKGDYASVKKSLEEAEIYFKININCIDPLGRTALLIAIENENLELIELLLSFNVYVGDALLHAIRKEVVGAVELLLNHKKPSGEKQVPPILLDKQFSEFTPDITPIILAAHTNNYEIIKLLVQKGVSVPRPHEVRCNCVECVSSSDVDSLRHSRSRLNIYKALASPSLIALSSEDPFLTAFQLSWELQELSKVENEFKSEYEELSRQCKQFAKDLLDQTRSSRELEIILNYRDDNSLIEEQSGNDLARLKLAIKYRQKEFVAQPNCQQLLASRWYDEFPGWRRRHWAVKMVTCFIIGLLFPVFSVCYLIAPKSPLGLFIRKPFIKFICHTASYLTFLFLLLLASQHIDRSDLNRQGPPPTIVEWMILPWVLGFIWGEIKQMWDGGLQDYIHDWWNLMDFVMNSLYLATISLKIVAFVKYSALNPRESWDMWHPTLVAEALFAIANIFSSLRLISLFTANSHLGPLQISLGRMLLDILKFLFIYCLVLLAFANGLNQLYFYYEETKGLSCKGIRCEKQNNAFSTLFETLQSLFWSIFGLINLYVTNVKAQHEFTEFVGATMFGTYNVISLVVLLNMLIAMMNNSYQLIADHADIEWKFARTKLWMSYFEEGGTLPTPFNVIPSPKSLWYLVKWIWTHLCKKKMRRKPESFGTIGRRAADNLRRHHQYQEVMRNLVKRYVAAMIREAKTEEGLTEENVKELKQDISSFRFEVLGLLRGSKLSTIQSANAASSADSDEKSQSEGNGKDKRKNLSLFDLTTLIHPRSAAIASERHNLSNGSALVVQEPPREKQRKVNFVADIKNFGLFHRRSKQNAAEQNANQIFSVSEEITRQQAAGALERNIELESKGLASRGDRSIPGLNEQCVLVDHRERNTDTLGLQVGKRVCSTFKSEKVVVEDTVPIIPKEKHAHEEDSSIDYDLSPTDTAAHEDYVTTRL

[6] = HEp-2 cell cytotoxicity, dose response, cytotoxicity control for RSV inhibitor project, HTS (AID 2410); format: functional; conditions: human respiratory syncytial virus
[7] = cytotoxicity toward NIH3T3 fibroblasts, dose response, counter-screen, cell-based, ATP luminescence, mouse fibroblasts (AID 2010); format: functional;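 note: cells exposed to compound for about 90 hours before reading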
[8] = inhibitors of intracellular T. cruzi replication, confirmation, NIH3T3 host cells, beta-gal luminescence (AID 2044); format: functional, cell-based;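 note: intracellular parasites grown in NIH/3T3 mouse fibroblasts as host cells; luminescent beta-galactosidase reporter signal from transgenic T. cruzi replicating inside host cells; inhibitors lower the luminescence signal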
[9] = target: T1, Heat shock factor protein 1; assay: inhibition of MG132-induced HSE-luciferase signal, confirmation, cell-based, NIH3T3, luminescence, dose retest (AID 2382); format: functional;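 note: NIH3T3 fibroblasts with HSF1-driven luciferase reporter stressed by proteasome inhibitor MG132; luminescence from HSF1-driven luciferase expression after 8 hours of MG132 stress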
[10] = Luminescence Cell-Based Dose Retest to Confirm Inhibitors of Cancer Stem Cells. [Related pubchem assays (depositor defined):AID2717, AID2721]; format: functional; conditions: Homo sapiens
[11] = Shn3 3'UTR reporter inhibitors, dose response, cell-based, Clone20 osteoblasts, firefly luciferase, cherry-picked (AID 624132); format: functional;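 note: firefly luciferase luminescence from reporter carrying the Shn3 3'UTR in osteoblasts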
[12] = control 3'UTR Renilla luciferase suppression, dose response, counter-screen for Shn3 inhibitor project, cell-based, Clone20-Shn3RL, cherry-picked (AID 624133); format: functional
[13] = HepG2 cell cytotoxicity, dose response, cytotoxicity control for Shn3 inhibitor project, CellTiter-Glo, cherry-picked (AID 624134); format: functional, cell-based
cells = format: functional
H9c2 = assay: cells; format: functional, cell-based; conditions: Rattus norvegicus, H9c2, Myocardium
[14] = inhibitors of HIV Env-driven cell fusion, dose response, cherry-pick (AID 652057); format: functional, cell-based
[15] = C. albicans growth with fluconazole, confirmation, fluorescence, retest (AID 2467); format: functional, cell-based
[16] = NIH-3T3 fibroblast cytotoxicity, dose response, cytotoxicity control, cell-based, fluorescence, Alamar Blue, secondary assay (AID 2327); format: functional;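 note: NIH-3T3 mouse fibroblasts cultured with fluconazole at 8 µg/mL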

## O=C1NC(=O)[C@]2(Cc3ccccc3N3CCN(c4ccccc4)CC32)C(=O)N1Cc1ccccc1 (stereo partly specified)
[1]
  EC50: > 260 µM (inactive)

## S=C(NCCc1ccccc1)N1CCc2ccccc2C1
[2]
  EC50: 9.54 µM (active)
H4
  EC50: 26.3 µM (active)
[3]
  EC50: 12.2 µM (active)

## O=C(COc1ccc(C(=O)c2ccccc2)cc1)NC1CCCCCC1
[4]
  IC50: 22.9 µM (not active)

## Cn1c(CN2CCN(C(=O)c3ccc(F)cc3)CC2)nc2cc([N+](=O)[O-])ccc21
[1]
  EC50: > 260 µM (inactive)

## O=C(CCCCn1c(=O)[nH]c2ccccc2c1=O)NC1CCN(Cc2ccccc2)CC1
[5]
  EC50: 0.376 µM (active)

## COc1c2c(cc3c1C(CC(O)Cc1ccccc1)N(C)CC3)OCO2 (stereo unspecified)
[5]
  EC50: 2.99 µM (active)

## COC(=O)c1ccccc1N=Nc1c(O)n[nH]c1N
[5]
  EC50: 2.99 µM (active)
[6]
  CC50: > 50 µM (active)

## CCCn1c(C)cc(C(=O)CSc2nc3ccccc3c(=O)n2Cc2ccco2)c1C
[2]
  EC50: 0.112 µM (active)
H4
  EC50: 5 µM (active)

## Cc1cccc(C)c1N(CC(=O)Nc1cc(Cl)ccc1Oc1ccccc1)S(C)(=O)=O
[4]
  IC50: 2.8 µM (not active)

## COc1ccc(CCn2c(=N)c(C(=O)NCC3CCCO3)cc3c(=O)n4cccc(C)c4nc32)cc1 (stereo unspecified)
[2]
  EC50: 34.5 µM (active)
[7]
  EC50: > 30 µM (not active)
H4
  EC50: > 120 µM (not active)
[3]
  EC50: > 120 µM (not active)
[8]
  EC50: 1.2 µM (active)

## CN1CCN(c2ccc([N+](=O)[O-])c3cccnc23)CC1
[5]
  EC50: 0.004 µM (active)
[9]
  EC50: > 195 µM (not active)

## COc1ccc(CCNc2oc(COc3ccc(F)cc3)nc2C#N)cc1
[4]
  IC50: 9.9 µM (not active)

## CCN1C(=O)/C(=C/c2nc3ccccc3c(=O)n2-c2ccc(C)cc2)c2ccccc21
[2]
  EC50: > 120 µM (not active)
[7]
  EC50: > 60 µM (not active)
H4
  EC50: 49.8 µM (active)
[3]
  EC50: 11 µM (active)
[8]
  EC50: 1.79 µM (active)

## CCCCNc1nc(Nc2ccc(C)c(Cl)c2)c2cnn(C)c2n1
[1]
  EC50: > 260 µM (inactive)
[10]
  AC50: 9.2 µM (active)
[6]
  CC50: 6.78 µM (active)

## CC1(C)CC2CC(C)(CN2c2ncnc3ccc(Br)cc23)C1 (stereo unspecified)
[11]
  AC50: 2.11 µM (active)
[12]
  AC50: 0.972 µM (active)
[13]
  AC50: 37.2 µM (active)

## CCc1ccc(-c2cc(C(=O)NCc3ccccn3)c3ccccc3n2)cc1
[2]
  EC50: 21.4 µM (active)
H4
  EC50: 11.4 µM (active)
[3]
  EC50: 6.99 µM (active)

## Cn1c(N2CCN(C(=O)Nc3ccc(C(F)(F)F)cc3)CC2)nc2ccccc21
[5]
  EC50: 3.35 µM (active)

## CC(=O)N1N=C(c2ccccc2)CC1c1cn(C)c2ccccc12 (stereo unspecified)
[2]
  EC50: 10.4 µM (active)
H4
  EC50: 53 µM (active)
[3]
  EC50: 9.19 µM (active)

## CCOC(=O)C1CCCN(S(=O)(=O)c2cccs2)C1 (stereo unspecified)
[4]
  IC50: < 0.4 µM (not active)

## Cc1ccc(C(=O)/C=C/c2ccc(-c3ccc(C)cc3)o2)cc1
[11]
  AC50: 2.79 µM (active)
[12]
  AC50: 14.3 µM (active)

## CCOC(=O)c1cn(CC(=O)Nc2cccc(Cl)c2C)nn1
[11]
  AC50: 4.65 µM (active)
[13]
  AC50: > 70 µM (inactive)

## O=C(CCN1CCC(c2cccs2)=N1)c1cccs1
[2]
  EC50: 17.8 µM (active)
H4
  EC50: 15.5 µM (active)
cells
  IC50: 35.8 µM (active)
[3]
  EC50: 15.7 µM (active)

## CC12CCC(=O)N1C(C(=O)Nc1cccc3ccccc13)CS2 (stereo unspecified)
[1]
  EC50: > 260 µM (inactive)

## Cc1cc(C)n(C(=N)NC(=O)c2ccc([N+](=O)[O-])cc2)n1
[2]
  EC50: 26.7 µM (active)
H4
  EC50: 110 µM (active)
[3]
  EC50: 18.9 µM (active)

## Cc1ccc(CNC(=O)c2cn(C3CCCCC3)c(=O)c3c2c2ccccc2n3C)o1
[1]
  EC50: 51.7 µM (active)
[6]
  CC50: 23.3 µM (active)

## CCOc1ccccc1N(CC(=O)OC)S(=O)(=O)c1ccccc1
[4]
  IC50: 35 µM (not active)

## CCC(=O)Nc1ccc2nn(-c3ccc(F)cc3)nc2c1
[1]
  EC50: > 260 µM (inactive)
[7]
  EC50: > 60 µM (not active)
[8]
  EC50: 4.4 µM (active)

## COc1ccc(OC(=O)c2cnn(-c3ccccc3)c2C)cc1
[2]
  EC50: 1.26 µM (active)
H4
  EC50: 1.93 µM (active)
[3]
  EC50: 9.33 µM (active)

## CN(CC(=O)N1CCCCCC1)S(=O)(=O)c1ccccc1
[2]
  EC50: 20.8 µM (active)
H4
  EC50: 18.1 µM (active)
[3]
  EC50: 15.4 µM (active)

## CCn1c(/C=C/Nc2ccccc2)[n+](CC)c2ccc(C(=O)OCC(F)(F)F)cc21
[4]
  IC50: 6.92 µM (not active)

## Cn1c(Sc2ccc(C(F)(F)F)cc2[N+](=O)[O-])nnc1-c1ccccc1
[1]
  EC50: > 260 µM (inactive)

## O=C(CCSc1ccccc1)NC(=O)COC(=O)C1CCCCC1
[4]
  IC50: 6.64 µM (not active)

## Cc1cccc(NC(S)=NCC(c2ccccc2)N(C)C)c1 (stereo unspecified)
[5]
  EC50: 0.119 µM (active)

## O=C1CC2(CCN(C(=O)c3ccccc3F)CC2)Oc2ccccc21
[11]
  AC50: 65.8 µM (active)
[12]
  AC50: 30.8 µM (active)

## Cc1cc(C)n(CC(O)COc2ccc(Cl)cc2Cl)n1 (stereo unspecified)
[1]
  EC50: 116 µM (active)

## COc1ccc(NC(=O)c2ccccc2SC)cc1
[4]
  IC50: 8.1 µM (not active)

## O=C(c1c(F)cccc1F)N1CCN(c2ncc(Br)cn2)CC1
[5]
  EC50: 0.596 µM (active)

## CN(Cc1ccc(OC(F)F)cc1)C(=O)c1cccc(S(=O)(=O)N2CCN(c3ccccc3)CC2)c1
[11]
  AC50: 2.59 µM (active)
[12]
  AC50: 1.65 µM (active)
[13]
  AC50: 62.1 µM (active)

## O=c1cc(CN2CCN(S(=O)(=O)c3cccc(Cl)c3)CC2)c2ccc(O)cc2o1
H9c2
  IC50: > 79 µM (inactive)

## COc1ccc(S(=O)(=O)N(C)C[C@H]2Oc3cc(C4=CCCC4)ccc3S(=O)(=O)N([C@@H](C)CO)C[C@H]2C)cc1
[14]
  AC50: 16.4 µM (active)

## CCn1c(C)nc2cc(C(=O)N/N=C/c3cccc(OC)c3O)ccc21
[15]
  EC50: > 38 µM (not active)
[16]
  EC50: 16.2 µM (active)
[10]
  AC50: 8.16 µM (active)
